Data on one molecule can be found in article PMC9603521, “WYBQ-4: a New Bactericidal Agent against Methicillin-Resistant Staphylococcus aureus” (Microbiology Spectrum, 2022).

≈ marks a conversion by molar mass, not a printed value.

In data set [1] the test system is MRSA USA300. In words: Mouse lung infection model, survival. The data set is classed as in vivo, mice. The settings on record: mouse pneumonia, USA300 2 × 10^8 CFU, 12-h intervals, within 72 h. As to the method:
The animal experiments were performed using 6-week-old male C57BL/6J mice, and the mouse model of lung infection caused by MRSA USA300 was established as previously described ([43], [44]). For the survival rate, mice (10 per group) were infected with MRSA USA300 (2 × 10^8 CFU per mouse). After 2 h of infection, mice were given WYBQ-4 via subcutaneous injection and reinjected at 12-h intervals, whereas mice were treated with ceftaroline fosamil at the same doses and served as positive controls. Mice injected with only MRSA USA300 were used as a negative control. Survival of mice was recorded within 72 h, and survival rates were calculated.

Data set [2] deals with methicillin-susceptible Staphylococcus epidermidis (MSSE) 35984. As to the kind of experiment: MIC by broth microdilution (CLSI). The data set is classed as cell-based. (In general: Broth dilution looks for growth in wells or tubes with falling amounts of substance.)
Another data set concerns Enterococcus faecium. As to the kind of experiment: MIC by broth microdilution (CLSI). The data set is classed as cell-based. The settings on record: compared to that against Staphylococcus.
Data set [3] in a line: Acute toxicity test in mice. The data set is classed as in vivo. The settings on record: intraperitoneal injection 300 mg/kg. As to the method:
Acute toxicity test in mice. The acute toxicity test in mice was performed according to the requirements of the Chinese Guidelines for Acute Toxicity of Chemicals (H-GPT1-1) ([42]). In brief, each group of 6 female mice (6 to 8 weeks old, weights of 18 to 20 g, BALB/c) was intraperitoneally injected with a single dose of 300, 150, or 75 mg/kg body weight of WYBQ-4. The mice were injected with PBS as a control group. Then, the poisoning symptoms, abnormal behavior, and survival of the mice in each group were observed within 72 h.

Data set [4] relates to MRSA USA300. In words: MIC by broth microdilution (CLSI). The data set is classed as cell-based. The settings on record: Staphylococcus aureus. As to the method:
(§1) The antibacterial spectrum and susceptibility of WYBQ-4 against MRSA USA300, MSSA 29213, and clinically isolated S. aureus were determined using a broth microdilution method following the guidelines outlined by the Clinical and Laboratory Standards Institute (CLSI) ([37], [38]). […] The absorbance was measured at 600 nm, and experiments were repeated in three biological replicates.

Data set [5] has as its system methicillin-susceptible Staphylococcus aureus (MSSA) 29213. In words: MIC by broth microdilution (CLSI). The data set is classed as cell-based. As to the method: as §1
The next data set deals with PBP2a (Staphylococcus aureus, UniProt P07944). As to the kind of experiment: PBP2a deacylation rate, BOCILLIN FL as reporter. The data set is classed as biochemical, MRSA. The settings on record: deacylation of PBP2a. As to the method: Α = A + ∆ε E (k∗ ∕ (k∗ + k∗)(1 − exp (−(k∗ + k∗)t)) + k N ∆ε Ε t (2)
Where kn* is the pseudo-first-order rate constant for acylation by nitrocefin at the concentration (N0) employed (0.1 mM), ki* the pseudo-first-order rate constant for the reaction of PBP2a with the WYBQ-4, E0 the initial enzyme concentration (2.5 µM), and k0 the second-order rate constant of nonspecific nitrocefin hydrolysis. Second-order rate constants (ki) for acylation were calculated from a linear least-squares fit to a plot of the apparent first-order rate constants (ki*) against the concentration of WYBQ-4. All plots were linear for the concentrations of WYBQ-4 used.
Determination of dissociation equilibrium constants (Ks) of WYBQ-4 and PBP2a The dissociation equilibrium constant (Ks) of PBP2a with WYBQ-4 were determined by the BOCILLIN method (2), as previously described. […] Samples (30 μL) were loaded onto a 10% SDS-polyacrylamide gel, which was developed and then observed using a fluorescence imager to calculate the grayscale curve. […]
The deacylation rate constants for wild-type PBP2a were determined using BOCILLIN FL as a reporter molecule. […]
The mixture was diluted 5 times with buffer and incubated at room temperature for different time intervals. […] Grayscale analysis was performed by imageJ and the rate constant k3 for the deacylation reaction of WYBQ-4 with PBP2a was determined based on eqn (3): […]

For data set [6], the system named is MRSA USA300. In words: Mouse lung infection model, bacterial load and histopathology. The data set is classed as in vivo, mice. The settings on record: mouse pneumonia. As to the method:
The mice were challenged with 1 × 10^8 CFU of MRSA USA300 to assess bacterial load and pathological changes. The dose and manner of administration in mice were consistent with the survival experiments. In addition, the mice treated with ceftaroline fosamil at 75 and 37.5 mg/kg were used as control groups. At 48 h postinfection, mice were euthanized, and the left lungs were aseptically removed, weighed, and homogenized. Then, the lung tissues were homogenized and serially diluted for CFU counts. The right lungs were fixed with 10% formalin, embedded in paraffin, thin-sectioned, subjected to conventional hematoxylin and eosin (H&E) staining, and then observed using an optical microscope.

Sequence of PBP2a (P07944 whole entry): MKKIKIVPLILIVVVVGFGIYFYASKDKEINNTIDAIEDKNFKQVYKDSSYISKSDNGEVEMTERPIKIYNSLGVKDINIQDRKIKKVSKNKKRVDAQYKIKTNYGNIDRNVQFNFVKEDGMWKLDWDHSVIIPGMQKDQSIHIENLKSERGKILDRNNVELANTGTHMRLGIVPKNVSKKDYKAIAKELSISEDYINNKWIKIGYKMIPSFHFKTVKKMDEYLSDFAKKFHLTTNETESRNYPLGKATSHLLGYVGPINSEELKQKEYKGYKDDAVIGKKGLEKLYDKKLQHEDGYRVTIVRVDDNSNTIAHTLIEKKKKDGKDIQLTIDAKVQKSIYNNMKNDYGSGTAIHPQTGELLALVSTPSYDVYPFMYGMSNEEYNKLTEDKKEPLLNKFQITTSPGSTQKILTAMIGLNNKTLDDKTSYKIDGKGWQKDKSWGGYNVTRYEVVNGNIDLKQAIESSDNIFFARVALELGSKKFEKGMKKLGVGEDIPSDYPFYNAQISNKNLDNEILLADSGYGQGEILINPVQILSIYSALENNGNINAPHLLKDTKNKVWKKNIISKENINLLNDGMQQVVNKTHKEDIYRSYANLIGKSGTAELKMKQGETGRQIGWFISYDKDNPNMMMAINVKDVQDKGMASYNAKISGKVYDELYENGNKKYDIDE

Regarding `C#CCO[C@@]1(NC(=O)CSc2cccc(C)c2)C(=O)N2C(C(=O)O)=C(CSc3nnnn3C)CSC21` (stereo partly shown) [WYBQ-4], the survival rate was 36.67% in the data set on MRSA USA300 [1] (37.5 mg/kg subcutaneous) and 70.00% with MRSA USA300 [1] (75 mg/kg subcutaneous). Also, the MIC (as a rule, the smallest concentration in the dilution series that meets the test's criterion for growth inhibition) in data set [2] was found to be 0.5 µg/mL (≈ 0.915 µM); in the data set with MRSA USA300 [4] it was 8 µg/mL (≈ 14.6 µM); in data set [5] it was 0.5 µg/mL (≈ 0.915 µM). The antibacterial activity result in the data set on Enterococcus faecium is given as “weak”. Moreover, the “acute toxicity, survival of mice” value in data set [3] is reported as “did not affect the survival of the mice”. This molecule also returned a k3 at PBP2a of 11 ± 1.32 s^–1 × 10^6. In addition, the “bacterial counts in the lung” value in the data set on MRSA USA300 [6] (USA300 1 × 10^8 CFU, 75 mg/kg, 48 h postinfection) was found to be 5.44 ± 0.15 log10 CFU/g. Also, the “inflammatory signs of lung tissue (H&E histopathology)” value in the data set with MRSA USA300 [6] (USA300, after treatment) is recorded as “significantly reduced”.
